Results as given in patent US20180045744A1, “N[…] DRUG CONCENTRATIONS IN ORAL FLUIDS AND TESTING FOR POTENTIAL NON-[…] DRUG TREATMENT REGIMEN” (Ameritox, LLC, priority 2015, published 2018).

Test: Oral fluid testing: concentration of the primary metabolite (parent drug) in oral fluid of patients
Format: in vivo, human
Experimental: In some embodiments, the amount of a drug in a subject is determined by analyzing a fluid of the subject. The term “fluid” as used herein refers to oral fluid and any liquid or pseudo-liquid obtained from the oral cavity of the subject. Non-limiting examples include saliva, mucus, and the like. In an embodiment, the fluid is oral fluid.
Determining the amount of a drug in oral fluid of the subject may be accomplished by use of any method known to those skilled in the art. Non-limiting examples for determining the amount of a drug in fluid of a subject include fluorescence polarization immunoassay (“FPIA,” Abbott Diagnostics), mass spectrometry (MS), gas chromatography-mass spectrometry (GC-MS-MS), liquid chromatography-mass spectrometry (LC-MS-MS), and the like. In one embodiment, LC-MS-MS methods known to those skilled in the art are used to determine a raw level, amount or concentration of a drug in oral fluid of the subject. In one embodiment, a raw level or concentration of a drug in oral fluid of a subject is measured and reported as a ratio, percent, or in relationship to the amount of fluid. The amount of fluid may be expressed as a unit volume, for example, in L, mL, μL, pL, ounce, etc. In one embodiment, the raw amount of a drug in oral fluid of a subject may be expressed as an absolute level or value, for example, in g, mg, pg, ng, pg, etc.
The results (drug concentration of the primary metabolite), demographic information (gender, weight, height, and age), and the prescribed dosage of hydrocodone for fifty randomly selected patients—not included in the patient population used to design the models—were used to assess the validity and robustness of the models.
The results (drug concentration of the primary metabolite), demographic information (gender, weight, height, and age), and the prescribed dosage of oxycodone for fifty randomly selected patients—not included in the patient population used to design the models—were used to assess the validity and robustness of the models.

Row | SMILES | concentration of the primary metabolite (parent drug) in oral fluid (Example 1: subject, 180 lbs, 65 inches, 30 mg daily dose of hydrocodone) [ng/mL] | concentration of the primary metabolite (parent drug) in the oral fluid (Example 2: subject, 225 lbs, 69 inches, 40 mg daily dose of hydrocodone) [ng/m I] | concentration of the primary metabolite (parent drug) in the oral fluid (Example 3: subject, 254 lbs, 71 inches, 90 mg daily dose of oxycodone) [ng/mL] | concentration of the primary metabolite (parent drug) in the oral fluid (Example 4: subject, 113 lbs, 64 inches, 60 mg daily dose) [ng/mL]
1 | COc1ccc2c3c1O[C@H]1C(=O)CC[C@H]4[C@@H](C2)N(C)CC[C@]314 [Hydrocodone, hydrocodone] | 34 | 101 | – | –
2 | COc1ccc2c3c1O[C@H]1C(=O)CC[C@@]4(O)[C@@H](C2)N(C)CC[C@]314 [Oxycodone, oxycodone] | – | – | 429 | 50
